Patent US7511145B2 (Genelabs Technologies, Inc., priority 2003, dated 2009)

Biological target: T1, HCV-NS5b (Hepatitis C virus genotype 1b, UniProt Q9WMX2)
T1 construct: (His)6 (C); made in house; host or cells: XL-1 cells (E. coli), IPTG-inducible plasmid, nickel-NTA purification
Assay: HCV-NS5b enzyme assay (incorporation of radiolabeled UTP)
Type: biochemical
Conditions: for inhibition at 33 µM: enzyme inhibition at compound concentration of 33 uM; for inhibition at 100 µM: read-out: % inh@100, enzyme inhibition at compound concentration of 100 uM
Outline: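 His6-tagged NS5b lacking the C-terminal 21 residues, expressed in XL-1 and Ni-NTA purified. Reaction at pH 7.5 with 5 mM MgCl2, 10 μM each NTP including [3H]-UTP and biotinylated HCV heteropolymeric template, 2 h at 37° C; SPA read-out; % inhibition at 100 and 33 uM versus no-compound control, background subtracted.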

| SMILES | inhibition at 33 µM | inhibition at 100 µM |
| --- | --- | --- |
| COc1cccc(-c2ccc3cc(-c4nc5cc(C(=O)O)ccc5n4C4CCCCC4)ccc3n2)c1 [Compound 486, 1-Cyclohexyl-2-[2-(3-methoxy-phenyl)-quinolin-6-yl]-1H-benzoimidazole-5-carboxylic acid] | 93.5% | 97.9% |
| O=C(O)c1ccc2c(c1)nc(-c1ccc3nc(-c4cc(O)ccc4-c4ccccc4)ccc3c1)n2C1CCCCC1 [Compound 487, 1-Cyclohexyl-2-[2-(4-hydroxy-biphen-2-yl)-quinolin-6-yl]-1H-benzoimidazole-5-carboxylic acid] | 102% | 101% |
| O=C(O)c1ccc2c(c1)nc(-c1ccc3nc(-c4ccc(N5CCNCC5)cc4)ccc3c1)n2C1CCCCC1 [Compound 488, 1-cyclohexyl-2-[2-(4-piperazin-1-yl-phenyl)-quinolin-6-yl]-1H-benzoimidazole-5-carboxylic acid] | 91.8% | 97.2% |
| CCCN(CCC)Cc1ccc2cc(-c3nc4cc(C(=O)O)ccc4n3C3CCCCC3)ccc2n1 [Compound 489, 1-cyclohexyl-2-(2-dipropylaminomethyl-quinolin-6-yl)-1H-benzoimidazole-5-carboxylic acid] | 87% | 96% |
| O=C(O)c1cnc2c(c1)nc(-c1ccc3nc(-c4ccccc4-c4ccc(Cl)cc4)ccc3c1)n2C1CCCCC1 [Compound 490, 2-[2-(4′-chloro-biphen-2-yl)-quinolin-6-yl]-3-cyclohexyl-3H-imidazo[4,5-b]pyridine-6-carboxylic acid] | 95.9% | 94.3% |
| CN(C)CCNC(=O)c1ccc(-c2ccc(Cl)cc2)c(-c2ccc3cc(-c4nc5cc(C(=O)O)ccc5n4C4CCCCC4)ccc3n2)c1 [Compound 491, 2-{2-[4′-Chloro-4-(2-dimethylamino-ethylcarbamoyl)-biphen-2-yl]-quinolin-6-yl}-1-cyclohexyl-1H-benzoimidazole-5-carboxylic acid] | 98.3% | 100% |
| O=C(O)c1ccc2c(c1)nc(-c1ccc3nc(-c4ccc(Oc5ccc(Cl)cc5)cc4Cl)ccc3c1)n2C1CCCCC1 [Compound 492, 2-{2-[2-chloro-4-(4-chloro-phenoxy)-phenyl]-quinolin-6-yl}-1-cyclohexyl-1H-benzoimidazole-5-carboxylic acid] | 99.2% | 100% |
| COc1ccc2occ(-c3ccc4cc(-c5nc6cc(C(=O)O)ccc6n5C5CCCCC5)ccc4n3)c2c1 [Compound 493, 1-cyclohexyl-2-[2-(5-methoxy-benzofuran-3-yl)-quinolin-6-yl]-1H-benzoimidazole-5-carboxylic acid] | 101% | 100% |
| CCOc1cc(-c2ccccc2)nc2ccc(-c3nc4cc(C(=O)O)ccc4n3C3CCCCC3)cc12 [Compound 494, 1-cyclohexyl-2-(4-ethoxy-2-phenyl-quinolin-6-yl)-1H-benzoimidazole-5-carboxylic acid] | 94.8% | 99.2% |
| COc1cc(OC)cc(-c2ccc3cc(-c4nc5cc(C(=O)O)ccc5n4C4CCCCC4)ccc3n2)c1 [Compound 495, 1-cyclohexyl-2-[2-(3,5-dimethoxy-phenyl)-quinolin-6-yl]-1H-benzoimidazole-5-carboxylic acid] | 99.8% | 101% |
| O=C(O)c1ccc2c(c1)nc(-c1ccc3nc(-c4ccccc4)cc(Oc4ccccc4)c3c1)n2C1CCCCC1 [Compound 496, 1-cyclohexyl-2-(4-phenoxy-2-phenyl-quinolin-6-yl)-1H-benzoimidazole-5-carboxylic acid] | 101% | 101% |
| CC(NC(=O)c1ccc2cc(-c3nc4cc(C(=O)O)ccc4n3C3CCCCC3)ccc2n1)C(N)=O (centres unmarked) [Compound 497, 2-[2-(1-Carbamoylethylcarbamoyl)quinolin-6-yl]-1-cyclohexyl-1H-benzimidazole-5-carboxylic acid] | 65.5% | 88.5% |
| Cc1cc(-c2ccccc2)nc2ccc(-c3nc4cc(C(=O)O)ccc4n3C3CCCCC3)cc12 [Compound 498, 1-Cyclohexyl-2-(4-methyl-2-phenyl-quinolin-6-yl)-1H-benzoimidazole-5-carboxylic acid] | 98.5% | 100% |
| COc1ccc(-c2ccccc2)c(-c2ccc3cc(-c4nc5cc(C(=O)O)ccc5n4C4CCCCC4)ccc3n2)c1 [Compound 499, 1-Cyclohexyl-2-[2-(4-methoxy-biphen-2-yl)-quinolin-6-yl]-1H-benzoimidazole-5-carboxylic acid] | 101% | 99.7% |
| O=C(O)c1ccc2c(c1)nc(-c1ccc3nc(-c4cc(O)ccc4-c4ccc(Cl)cc4)ccc3c1)n2C1CCCCC1 [Compound 500, 2-[2-(4′-Chloro-4-hydroxy-biphen-2-yl)-quinolin-6-yl]-1-cyclohexyl-1H-benzoimidazole-5-carboxylic acid] | 101% | 101% |
| CC(=O)Nc1ccc(-c2ccc3cc(-c4nc5cc(C(=O)O)ccc5n4C4CCCCC4)ccc3n2)cc1 [Compound 501, 2-[2-(4-acetylamino-phenyl)-quinolin-6-yl]-1-cyclohexyl-1H-benzoimidazole-5-carboxylic acid] | 90.6% | 96.8% |
| CC1(C)C(CC(=O)O)CC1c1ccc2cc(-c3nc4cc(C(=O)O)ccc4n3C3CCCCC3)ccc2n1 (centres unmarked) [Compound 502, 2-[2-(3-carboxymethyl-2,2-dimethyl-cyclobutyl)-quinolin-6-yl]-1-cyclohexyl-1H-benzoimidazole-5-carboxylic acid] | 99% | 100% |
| O=C(O)c1ccc2c(c1)nc(-c1ccc3nc(-c4cccc(OCC(=O)N5CCCC5)c4)ccc3c1)n2C1CCCCC1 [Compound 503, 1-cyclohexyl-2-{2-[3-(2-oxo-2-pyrrolidin-1-yl-ethoxy)-phenyl]-quinolin-6-yl}-1H-benzoimidazole-5-carboxylic acid] | 95.8% | 97% |
| CN(C)CCNC(=O)c1ccc(-c2ccccc2)c(-c2ccc3cc(-c4nc5cc(C(=O)O)ccc5n4C4CCCCC4)ccc3n2)c1 [Compound 504, 1-Cyclohexyl-2-{2-[4-(2-dimethylamino-ethylcarbamoyl)-biphen-2-yl]-quinolin-6-yl}-1H-benzoimidazole-5-carboxylic acid] | 98.3% | 100% |
| Cc1oc(-c2ccc(Cl)cc2)cc1-c1ccc2cc(-c3nc4cc(C(=O)O)ccc4n3C3CCCCC3)ccc2n1 [Compound 505, 2-{2-[5-(4-chloro-phenyl)-2-methyl-furan-3-yl]-quinolin-6-yl}-1-cyclohexyl-1H-benzoimidazole-5-carboxylic acid] | 99.7% | 102% |
| CCOCCOc1ccc(-c2ccc(Cl)cc2)c(-c2ccc3cc(-c4nc5cc(C(=O)O)ccc5n4C4CCCCC4)ccc3n2)c1 [Compound 507, 2-{2-[4′-Chloro-4-(2-ethoxy-ethoxy)-biphen-2-yl]-quinolin-6-yl}-1-cyclohexyl-1H-benzoimidazole-5-carboxylic acid] | 101% | 101% |
| O=C(O)c1ccc2c(c1)nc(-c1ccc3nc(-c4ccc(Cl)c(Cl)c4)ccc3c1)n2C1CCCCC1 [Compound 508, 1-cyclohexyl-2-[2-(3,4-dichloro-phenyl)-quinolin-6-yl]-1H-benzoimidazole-5-carboxylic acid] | 98.9% | 98.9% |
